Measured values taken from ChEMBL document CHEMBL3991601, “The target landscape of clinical kinase drugs” (Science, 2017).
Activity calls are given as the source filed them. For most assays here, no stated cut-off is given here; in the data, actives have a measured Kd and inactives only a lower limit.

Key:
[1] = target: Activated CDC42 kinase 1 (Homo sapiens, UniProt Q07912)
[2] = target: T1, Phosphatidylinositol 5-phosphate 4-kinase type-2 gamma (Homo sapiens, UniProt Q8TBX8)
T1 sequence (Q8TBX8 whole entry): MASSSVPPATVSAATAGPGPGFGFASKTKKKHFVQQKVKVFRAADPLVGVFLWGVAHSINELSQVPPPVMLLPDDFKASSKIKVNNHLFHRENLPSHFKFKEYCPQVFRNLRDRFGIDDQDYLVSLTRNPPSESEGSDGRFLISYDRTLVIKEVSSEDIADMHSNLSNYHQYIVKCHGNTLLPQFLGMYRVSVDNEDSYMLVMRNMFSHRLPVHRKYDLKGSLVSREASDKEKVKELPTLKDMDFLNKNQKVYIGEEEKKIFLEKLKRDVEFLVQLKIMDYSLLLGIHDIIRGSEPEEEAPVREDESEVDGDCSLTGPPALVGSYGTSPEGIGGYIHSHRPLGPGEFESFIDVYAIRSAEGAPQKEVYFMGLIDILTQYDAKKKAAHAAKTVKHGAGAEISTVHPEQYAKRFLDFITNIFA

[3] = target: Serine/threonine-protein kinase PAK 4 (Homo sapiens, UniProt O96013)
Serine/threonine-protein kinase PAK 4, sequence (O96013 whole entry): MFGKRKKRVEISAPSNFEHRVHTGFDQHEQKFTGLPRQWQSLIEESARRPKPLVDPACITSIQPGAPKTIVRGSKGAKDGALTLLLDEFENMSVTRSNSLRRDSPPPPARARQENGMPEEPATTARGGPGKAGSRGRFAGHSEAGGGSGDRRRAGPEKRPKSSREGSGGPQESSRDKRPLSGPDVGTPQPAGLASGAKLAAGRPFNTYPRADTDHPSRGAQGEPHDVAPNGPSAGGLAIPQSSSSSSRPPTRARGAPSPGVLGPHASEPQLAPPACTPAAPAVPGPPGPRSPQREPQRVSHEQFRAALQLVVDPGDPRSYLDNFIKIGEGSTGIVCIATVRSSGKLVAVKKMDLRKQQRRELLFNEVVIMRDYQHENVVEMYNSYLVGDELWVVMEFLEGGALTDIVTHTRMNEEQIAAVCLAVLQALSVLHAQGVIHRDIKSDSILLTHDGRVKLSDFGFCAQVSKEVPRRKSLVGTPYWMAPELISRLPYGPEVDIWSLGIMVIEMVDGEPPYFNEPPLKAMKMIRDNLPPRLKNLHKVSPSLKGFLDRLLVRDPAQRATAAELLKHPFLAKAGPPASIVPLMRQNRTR

[4] = target: BMP-2-inducible protein kinase (Homo sapiens, UniProt Q9NSY1)
BMP-2-inducible protein kinase, sequence (Q9NSY1 whole entry): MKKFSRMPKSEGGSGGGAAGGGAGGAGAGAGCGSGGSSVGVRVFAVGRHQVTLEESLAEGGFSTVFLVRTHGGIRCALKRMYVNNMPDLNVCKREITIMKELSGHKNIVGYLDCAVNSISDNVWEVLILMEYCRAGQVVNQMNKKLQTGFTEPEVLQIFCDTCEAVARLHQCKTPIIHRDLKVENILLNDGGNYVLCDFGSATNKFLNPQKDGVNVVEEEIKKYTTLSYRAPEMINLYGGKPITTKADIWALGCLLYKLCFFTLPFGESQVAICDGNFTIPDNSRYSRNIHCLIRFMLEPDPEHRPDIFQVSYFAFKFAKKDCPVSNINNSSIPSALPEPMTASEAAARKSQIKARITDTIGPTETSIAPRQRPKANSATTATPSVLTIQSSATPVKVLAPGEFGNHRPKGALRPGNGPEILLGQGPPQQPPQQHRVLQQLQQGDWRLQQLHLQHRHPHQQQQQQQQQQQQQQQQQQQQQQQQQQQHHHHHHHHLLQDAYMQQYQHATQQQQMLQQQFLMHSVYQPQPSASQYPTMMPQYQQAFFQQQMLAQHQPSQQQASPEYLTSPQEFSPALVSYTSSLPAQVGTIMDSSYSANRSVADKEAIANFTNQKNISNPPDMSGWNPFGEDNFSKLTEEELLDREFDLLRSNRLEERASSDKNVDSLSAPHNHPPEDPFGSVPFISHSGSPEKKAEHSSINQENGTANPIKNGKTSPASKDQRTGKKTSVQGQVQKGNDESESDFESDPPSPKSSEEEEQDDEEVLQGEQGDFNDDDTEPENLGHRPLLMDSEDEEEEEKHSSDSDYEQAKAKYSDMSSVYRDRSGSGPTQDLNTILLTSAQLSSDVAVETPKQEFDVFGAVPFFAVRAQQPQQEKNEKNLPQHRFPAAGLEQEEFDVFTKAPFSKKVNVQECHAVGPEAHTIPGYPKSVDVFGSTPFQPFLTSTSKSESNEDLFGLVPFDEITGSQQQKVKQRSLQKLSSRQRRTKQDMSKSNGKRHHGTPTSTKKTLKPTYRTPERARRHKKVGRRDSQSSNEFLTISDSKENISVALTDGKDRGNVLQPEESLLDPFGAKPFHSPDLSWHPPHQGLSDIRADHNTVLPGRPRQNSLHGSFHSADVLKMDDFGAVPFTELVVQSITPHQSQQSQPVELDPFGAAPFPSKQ

[5] = target: T2, Serine/threonine-protein kinase Nek3 (Homo sapiens, UniProt P51956)
T2 sequence (P51956 whole entry): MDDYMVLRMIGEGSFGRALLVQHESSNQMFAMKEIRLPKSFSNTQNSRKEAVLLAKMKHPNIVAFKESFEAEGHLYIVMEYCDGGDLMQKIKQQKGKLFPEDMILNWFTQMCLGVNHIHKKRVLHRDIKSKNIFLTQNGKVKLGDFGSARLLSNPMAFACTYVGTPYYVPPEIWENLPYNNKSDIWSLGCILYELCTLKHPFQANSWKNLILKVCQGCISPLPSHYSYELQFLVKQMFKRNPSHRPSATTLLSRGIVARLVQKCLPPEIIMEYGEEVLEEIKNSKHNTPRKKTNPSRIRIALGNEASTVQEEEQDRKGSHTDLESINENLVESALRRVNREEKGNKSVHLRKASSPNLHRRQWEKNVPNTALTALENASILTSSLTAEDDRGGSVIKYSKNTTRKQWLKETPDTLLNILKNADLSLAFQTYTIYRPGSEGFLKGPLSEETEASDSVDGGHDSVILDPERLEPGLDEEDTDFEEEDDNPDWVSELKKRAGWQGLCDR

[6] = target: T3, Aurora kinase A (Homo sapiens, UniProt O14965)
T3 sequence (O14965 whole entry): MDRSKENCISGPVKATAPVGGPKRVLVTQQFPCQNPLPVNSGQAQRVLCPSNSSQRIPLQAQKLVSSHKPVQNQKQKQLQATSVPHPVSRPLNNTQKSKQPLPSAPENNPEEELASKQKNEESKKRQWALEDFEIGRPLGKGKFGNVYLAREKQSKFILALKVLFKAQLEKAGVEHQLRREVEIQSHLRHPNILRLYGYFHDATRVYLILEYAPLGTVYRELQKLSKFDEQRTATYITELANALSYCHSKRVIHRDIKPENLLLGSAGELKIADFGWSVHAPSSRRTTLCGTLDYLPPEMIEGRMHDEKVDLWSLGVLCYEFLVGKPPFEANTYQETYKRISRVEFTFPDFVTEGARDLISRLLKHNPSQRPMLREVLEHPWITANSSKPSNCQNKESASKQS

[7] = target: Mitogen-activated protein kinase 1 (Homo sapiens, UniProt P28482)
Mitogen-activated protein kinase 1, sequence (P28482 whole entry): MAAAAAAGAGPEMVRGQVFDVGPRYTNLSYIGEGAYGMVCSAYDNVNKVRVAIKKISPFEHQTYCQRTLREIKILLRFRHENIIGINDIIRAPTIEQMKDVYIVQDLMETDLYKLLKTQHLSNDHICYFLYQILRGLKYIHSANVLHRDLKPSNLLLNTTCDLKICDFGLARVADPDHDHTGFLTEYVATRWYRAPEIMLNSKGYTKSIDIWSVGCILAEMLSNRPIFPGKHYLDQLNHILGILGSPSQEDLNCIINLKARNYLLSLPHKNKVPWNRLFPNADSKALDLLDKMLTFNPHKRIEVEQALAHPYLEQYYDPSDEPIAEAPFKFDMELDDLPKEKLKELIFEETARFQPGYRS

[8] = target: Bone morphogenetic protein receptor type-1B (Homo sapiens, UniProt O00238)
Bone morphogenetic protein receptor type-1B, sequence (O00238 whole entry): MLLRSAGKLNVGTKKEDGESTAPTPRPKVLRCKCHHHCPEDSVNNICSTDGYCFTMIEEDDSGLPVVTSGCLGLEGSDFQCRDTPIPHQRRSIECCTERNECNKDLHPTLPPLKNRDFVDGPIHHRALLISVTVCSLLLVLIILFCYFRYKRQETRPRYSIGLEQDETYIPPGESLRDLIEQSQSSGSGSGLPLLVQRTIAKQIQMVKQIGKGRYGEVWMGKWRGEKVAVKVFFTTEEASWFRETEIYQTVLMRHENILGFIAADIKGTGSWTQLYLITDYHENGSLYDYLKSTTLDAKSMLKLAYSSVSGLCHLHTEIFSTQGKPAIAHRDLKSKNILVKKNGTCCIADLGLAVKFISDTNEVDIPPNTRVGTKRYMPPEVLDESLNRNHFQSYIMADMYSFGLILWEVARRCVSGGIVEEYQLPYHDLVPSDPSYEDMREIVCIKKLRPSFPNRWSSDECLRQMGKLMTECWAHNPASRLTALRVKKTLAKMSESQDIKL

[9] = target: T4, EKC/KEOPS complex subunit TP53RK (Homo sapiens, UniProt Q96S44)
T4 sequence (Q96S44 whole entry): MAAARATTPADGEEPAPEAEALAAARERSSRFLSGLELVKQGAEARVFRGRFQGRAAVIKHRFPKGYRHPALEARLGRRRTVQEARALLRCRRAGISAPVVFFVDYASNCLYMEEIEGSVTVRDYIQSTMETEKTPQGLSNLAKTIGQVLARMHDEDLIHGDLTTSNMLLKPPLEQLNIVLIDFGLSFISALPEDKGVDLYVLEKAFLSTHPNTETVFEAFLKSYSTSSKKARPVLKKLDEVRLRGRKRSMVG

[10] = target: Ribosomal protein S6 kinase alpha-5 (Homo sapiens, UniProt O75582)
Ribosomal protein S6 kinase alpha-5, sequence (O75582 whole entry, canonical isoform): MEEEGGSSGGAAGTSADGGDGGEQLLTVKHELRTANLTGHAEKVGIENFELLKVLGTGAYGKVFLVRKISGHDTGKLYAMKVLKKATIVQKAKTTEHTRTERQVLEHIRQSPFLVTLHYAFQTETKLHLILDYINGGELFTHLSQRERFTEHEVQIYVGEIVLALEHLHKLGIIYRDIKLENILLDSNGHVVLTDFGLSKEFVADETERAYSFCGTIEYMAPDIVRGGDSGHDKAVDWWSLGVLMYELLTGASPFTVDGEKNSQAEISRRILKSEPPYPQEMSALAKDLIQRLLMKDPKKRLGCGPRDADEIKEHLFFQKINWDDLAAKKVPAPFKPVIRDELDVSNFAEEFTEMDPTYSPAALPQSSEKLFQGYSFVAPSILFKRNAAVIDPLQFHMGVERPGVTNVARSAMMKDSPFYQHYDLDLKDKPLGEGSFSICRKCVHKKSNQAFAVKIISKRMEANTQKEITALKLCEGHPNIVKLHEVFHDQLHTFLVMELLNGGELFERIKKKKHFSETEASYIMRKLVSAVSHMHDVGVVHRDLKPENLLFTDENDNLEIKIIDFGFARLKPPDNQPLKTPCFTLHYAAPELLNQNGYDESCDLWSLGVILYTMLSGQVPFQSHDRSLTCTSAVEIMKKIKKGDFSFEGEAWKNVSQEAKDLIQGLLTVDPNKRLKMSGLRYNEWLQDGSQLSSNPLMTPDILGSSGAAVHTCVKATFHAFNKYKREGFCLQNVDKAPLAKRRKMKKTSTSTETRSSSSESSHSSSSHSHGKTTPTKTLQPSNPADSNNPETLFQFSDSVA

[11] = target: S-adenosylmethionine synthase isoform type-2 (Homo sapiens, UniProt P31153)
S-adenosylmethionine synthase isoform type-2, sequence (P31153 whole entry, canonical isoform): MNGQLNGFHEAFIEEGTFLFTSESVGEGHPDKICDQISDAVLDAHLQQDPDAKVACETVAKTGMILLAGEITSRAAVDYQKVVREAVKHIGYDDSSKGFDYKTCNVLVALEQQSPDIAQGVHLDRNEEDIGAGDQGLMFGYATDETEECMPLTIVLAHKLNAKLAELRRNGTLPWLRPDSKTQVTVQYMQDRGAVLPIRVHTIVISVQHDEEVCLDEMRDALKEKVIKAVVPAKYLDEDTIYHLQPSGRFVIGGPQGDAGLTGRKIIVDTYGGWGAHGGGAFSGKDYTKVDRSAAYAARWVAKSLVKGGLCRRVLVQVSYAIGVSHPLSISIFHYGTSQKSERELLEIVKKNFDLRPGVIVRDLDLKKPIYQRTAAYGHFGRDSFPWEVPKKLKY

[12] = target: Calcium/calmodulin-dependent protein kinase type II subunit gamma (Homo sapiens, UniProt Q13555)
Calcium/calmodulin-dependent protein kinase type II subunit gamma, sequence (Q13555 whole entry): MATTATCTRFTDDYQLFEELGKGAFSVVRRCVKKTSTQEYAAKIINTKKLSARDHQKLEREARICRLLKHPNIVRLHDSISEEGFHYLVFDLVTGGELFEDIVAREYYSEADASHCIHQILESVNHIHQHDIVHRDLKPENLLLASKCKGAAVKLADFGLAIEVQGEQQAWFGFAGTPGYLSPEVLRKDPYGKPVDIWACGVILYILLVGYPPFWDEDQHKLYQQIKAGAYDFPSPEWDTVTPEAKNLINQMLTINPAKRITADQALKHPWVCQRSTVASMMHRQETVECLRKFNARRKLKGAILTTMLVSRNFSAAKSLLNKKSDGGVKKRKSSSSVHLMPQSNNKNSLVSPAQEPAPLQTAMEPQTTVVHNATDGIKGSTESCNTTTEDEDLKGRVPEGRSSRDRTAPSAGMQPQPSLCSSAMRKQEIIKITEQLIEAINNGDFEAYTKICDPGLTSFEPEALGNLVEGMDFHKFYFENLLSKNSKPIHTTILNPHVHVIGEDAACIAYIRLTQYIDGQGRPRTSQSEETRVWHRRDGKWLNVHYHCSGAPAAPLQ

[13] = target: ATP-dependent RNA helicase DDX3X (Homo sapiens, UniProt O00571)
ATP-dependent RNA helicase DDX3X, sequence (O00571 whole entry): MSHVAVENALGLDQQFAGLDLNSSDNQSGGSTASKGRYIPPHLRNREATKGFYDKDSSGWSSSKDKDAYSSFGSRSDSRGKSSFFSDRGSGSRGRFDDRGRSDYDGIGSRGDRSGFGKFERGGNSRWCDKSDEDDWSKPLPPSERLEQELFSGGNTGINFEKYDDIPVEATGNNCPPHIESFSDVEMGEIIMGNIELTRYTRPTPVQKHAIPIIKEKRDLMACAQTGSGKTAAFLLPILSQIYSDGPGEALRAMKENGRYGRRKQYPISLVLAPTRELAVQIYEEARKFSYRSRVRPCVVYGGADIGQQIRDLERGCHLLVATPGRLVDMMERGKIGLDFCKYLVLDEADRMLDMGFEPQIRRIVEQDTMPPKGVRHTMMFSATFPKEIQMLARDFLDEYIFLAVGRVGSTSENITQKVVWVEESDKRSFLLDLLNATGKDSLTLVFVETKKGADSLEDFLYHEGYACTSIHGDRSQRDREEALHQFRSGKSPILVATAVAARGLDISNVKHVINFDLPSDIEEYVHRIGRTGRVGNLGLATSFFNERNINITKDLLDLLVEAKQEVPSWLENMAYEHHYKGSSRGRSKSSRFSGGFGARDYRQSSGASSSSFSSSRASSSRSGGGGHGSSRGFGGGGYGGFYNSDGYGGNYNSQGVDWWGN

| SMILES | Kd [1] | Kd [2] | Kd [3] | Kd [4] | Kd [5] | Kd [6] | Kd [7] | Kd [8] | Kd [9] | Kd [10] | Kd [11] | Kd [12] | Kd [13] |
| --- | --- | --- | --- | --- | --- | --- | --- | --- | --- | --- | --- | --- | --- |
| C=CC(=O)Nc1cc(Nc2nccc(-c3cn(C)c4ccccc34)n2)c(OC)cc1N(C)CCN(C)C [OSIMERTINIB] | > 30 µM (inactive) | 2.97 µM (active) | > 30 µM (inactive) | > 30 µM (inactive) | > 30 µM (inactive) | > 30 µM (inactive) | > 30 µM (inactive) | > 30 µM (inactive) | > 30 µM (inactive) | > 30 µM (inactive) | > 30 µM (inactive) | > 30 µM (inactive) | > 30 µM (inactive) |
| COc1cccc2cc(-c3nc([C@H]4CC[C@H](C(=O)O)CC4)n4ncnc(N)c34)[nH]c12 [OSI-027] | > 30 µM (inactive) | 4.97 µM | > 30 µM (inactive) | > 30 µM (inactive) | > 30 µM (inactive) | > 30 µM (inactive) | > 30 µM (inactive) | > 30 µM (inactive) | > 30 µM (inactive) | > 30 µM (inactive) | > 30 µM (inactive) | > 30 µM (inactive) | > 30 µM (inactive) |
| CNC(=O)c1ccc(Nc2ncc(C(F)(F)F)c(NCc3nccnc3N(C)S(C)(=O)=O)n2)cc1 [DEFACTINIB] | > 30 µM (inactive) | > 30 µM (inactive) | 22 µM (active) | > 30 µM (inactive) | > 30 µM (inactive) | 0.622 µM (active) | > 30 µM (inactive) | > 30 µM (inactive) | > 30 µM (inactive) | > 30 µM (inactive) | > 30 µM (inactive) | > 30 µM (inactive) | > 30 µM (inactive) |
| CN1CCN(c2nc(C3=C(c4c[nH]c5ccccc45)C(=O)NC3=O)c3ccccc3n2)CC1 [SOTRASTAURIN] | > 30 µM (inactive) | > 30 µM (inactive) | > 30 µM (inactive) | > 30 µM (inactive) | > 30 µM (inactive) | > 30 µM (inactive) | > 30 µM (inactive) | > 30 µM (inactive) | > 30 µM (inactive) | > 30 µM (inactive) | > 30 µM (inactive) | > 30 µM (inactive) | > 30 µM (inactive) |
| NC(=O)c1ccc(N(C(N)=O)c2c(F)cccc2F)nc1-c1ccc(F)cc1F [VX-702] | > 30 µM (inactive) | > 30 µM (inactive) | > 30 µM (inactive) | > 30 µM (inactive) | > 30 µM (inactive) | > 30 µM (inactive) | > 30 µM (inactive) | > 30 µM (inactive) | > 30 µM (inactive) | > 30 µM (inactive) | > 30 µM (inactive) | > 30 µM (inactive) | > 30 µM (inactive) |

Other lines, results leading:

| Kd [1] | Kd [2] | Kd [3] | Kd [4] | Kd [5] | Kd [6] | Kd [7] | Kd [8] | Kd [9] | Kd [10] | Kd [11] | Kd [12] | Kd [13] | SMILES |
| --- | --- | --- | --- | --- | --- | --- | --- | --- | --- | --- | --- | --- | --- |
| > 30 µM (inactive) | > 30 µM (inactive) | > 30 µM (inactive) | > 30 µM (inactive) | > 30 µM (inactive) | > 30 µM (inactive) | > 30 µM (inactive) | > 30 µM (inactive) | > 30 µM (inactive) | > 30 µM (inactive) | > 30 µM (inactive) | > 30 µM (inactive) | > 30 µM (inactive) | Cc1cc(-c2cc(OC(=O)c3ccccc3)ccc2Cl)cc2nnc(Nc3ccc(OCCN4CCCC4)cc3)nc12 [TG100-801] |
| > 30 µM (inactive) | > 30 µM (inactive) | > 30 µM (inactive) | 1.47 µM (active) | > 30 µM (inactive) | > 30 µM (inactive) | > 30 µM (inactive) | > 30 µM (inactive) | > 30 µM (inactive) | > 30 µM (inactive) | > 30 µM (inactive) | > 30 µM (inactive) | > 30 µM (inactive) | c1cc(OCCN2CCCCC2)cc(-c2n[nH]c3ccc(-c4nc[nH]n4)cc23)c1 [CC-401] |
